Where a name gives a salt, the structure may show the parent alone.
Legend:
[1] = target: T1, noradrenaline (NA) reuptake sites (Rattus norvegicus, UniProt Q63380); assay: displacement of [3H]nisoxetine from noradrenaline reuptake sites, frontal cortical membranes; conditions: 10^-6 M test compound, [3H]nisoxetine 0.6 nM, one test only, read-out: NA uptake (% displacement of specific binding of tritiated ligand)
T1 construct: Frontal cortical tissue from the brains of male Sprague-Dawley rats; from tissue; host or cells: rat brain frontal cortex (crude synaptosomes in A3, washed membranes in A6)
Procedure: Frontal cortical tissue from the brains of male Charles River rats weighing 150-250 g was homogenised in ice-cold 50 mM Tris-HCl, pH 7.4 (at 25° C.) containing 120 mM sodium chloride and 5 mM potassium chloride (Tris buffer; 1:60 w/v) using a Kinematic polytron (speed setting 6 for 30 seconds) and centrifuged at 40,000 g for 10 minutes. The supernatant was discarded and the pellet rehomogenised in Tris buffer, 1:60 w/v, and centrifuged at 40,000 g for 10 minutes. This step was repeated twice more so that, in total, the brain tissue was homogenised and centrifuged four times. The final pellet was resuspended in 50 mM Tris-HCl, pH 7.4 containing 300 mM sodium chloride and 5 mM potassium chloride (equivalent to 25 mg wet weight of tissue/ml) and used immediately in the binding assay. All centrifugations were performed at 4° C.
Membranes (400 μl; equivalent to 10 mg wet weight of tissue/tube) were incubated with 50 μl [^3 H]nisoxetine at a single concentration of 0.6 nM and 50 μl of distilled water (total binding) or 50 μl of test compound (10^-6 M) or 50 μl of mazindol (1 μM; non-specific binding) for 4 h at 4° C.
Membrane bound radioactivity was recovered by filtration under vacuum through Skatron 11734 filters using a Skatron cell harvester. Filters were rapidly washed with ice-cold 50 mM Tris-HCl, pH 7.4 containing 120 mM sodium chloride and 5 mM potassium chloride (wash setting 9,9,0) and radioactivity determined by liquid scintillation counting (1 ml Packard MV Gold scintillator).
(§1) For each of these tests measuring the ability of compounds of Formula I to displace standard ligands from dopamine (DA), 5-hydroxytryptamine (5-HT) and noradrenaline (NA) reuptake sites in vitro, the percentage displacement of specific binding of tritiated ligand by 10^-6 M test compound was calculated in the following way:
(§2) Firstly, specific binding of tritiated ligand in the absence (A) and presence (B) of test compound was determined:
(§3) In the absence of compound:
(§4) A (dpm)=Total binding (dpm)-Non-specific binding (dpm)
(§5) In the presence of compound (10^-6 M):
(§6) B (dpm)=Binding at 10^-6 M (dpm)-Non-specific binding (dpm)
(§7) The specific binding of tritiated ligand in the presence (B) of compound was then converted to a percentage of specific binding of tritiated ligand in the absence (A) of compound:
(§8) % Specific binding at 10^-6 M=B (dpm)/A(dpm)×100
(§9) The percentage displacement of specific binding of trtiated ligand by the test compound (10^-6 M) was then obtained by subtraction of the percentage specific binding in the presence of compound from the percentage specific binding in the absence of compound, which is taken as the maximum binding and so equals 100%:
(§10) % Displacement at 10^-6 M=100-% Specific binding at 10^-6 M.
(§11) The values given below in Table 2 for examples 6 to 76 are % displacement of specific binding of tritiated ligand by 10^-6 M test compound and represent results from one test only. IA refers to <50% displacement.

[2] = target: T2, 5-hydroxytryptamine (5-HT) reuptake sites (Rattus norvegicus, UniProt P31652); assay: displacement of [3H]paroxetine from 5-HT reuptake sites, frontal cortical membranes; assay type: binding; conditions: 10^-6 M test compound, [3H]paroxetine 30 pM, one test only, read-out: 5-HT uptake (% displacement of specific binding of tritiated ligand)
T2 construct: Frontal cortical tissue from the brains of male Sprague-Dawley rats; from tissue; host or cells: rat brain frontal cortex (crude synaptosomes in A2, washed membranes in A5)
Procedure: Frontal cortical tissue from the brains of male Charles River rats weighing 150-250 g was homogenised in ice-cold 0.25M sucrose (1:30 w/v) using a Kinematic polytron (speed setting 6 for 30 seconds) and centrifuged at 1000 g for 12 minutes. The supernatant was stored on ice and the pellet was resuspended in 0.25M sucrose (1:20 w/v) and centrifuged at 850 g for 10 minutes. Combined supernatants were diluted to 1:100 w/v with ice-cold 50 mM Tris-HCl, pH 7.5 (at 25° C.) containing 120 mM sodium chloride and 5 mM potassium chloride (Tris buffer) and centrifuged at 40,000 g for 10 minutes. The resulting pellet was resuspended in 50 mM Tris buffer (1:100 w/v) and recentrifuged at 40,000 g for 10 minutes. The final pellet was resuspended in 50 mM Tris buffer (equivalent to 2 mg wet weight of tissue/ml) and used immediately in the binding assay. All centrifugations were carried out at 4° C.
Membranes (1000 μl; equivalent to 2 mg wet weight of tissue/tube) were incubated with 200 μl [^3 H]paroxetine at a single concentration of 30 pM and 200 μl of distilled water (total binding) or 200 μl of test compound (10^-6 M) or 200 μl of citalopram (1 μM; non-specific binding) for 2 h at 22° C.
Membrane bound radioactivity was recovered by filtration under vacuum through Whatman GFIC filters using a Brandel cell harvester. Filters were rapidly washed with 16 ml ice-cold 50 mM Tris buffer and radioactivity determined by liquid scintillation counting (2 ml Packard MV Gold scintillator).
as §1, §2, §3, §4, §5, §6, §7, §8, §9, §10, §11

[3] = target: T3, dopamine (DA) reuptake sites (Rattus norvegicus, UniProt P23977); assay: displacement of [3H]GBR 12935 from dopamine reuptake sites, striatal membranes; assay type: binding; conditions: 10^-6 M test compound, [3H]GBR 12935 1 nM, one test only, read-out: DA uptake (% displacement of specific binding of tritiated ligand)
T3 construct: Striatal tissue from the brains of male Charles River rats weighing 150-250 g; from tissue; host or cells: rat brain striatum (crude synaptosomes in A1, washed membranes in A4)
Procedure: Striatal tissue from the brains of male Charles River rats weighing 150-250 g was homogenised in ice-cold 0.32M sucrose (1:80 w/v) using a motor driven teflon pestle (12 strokes, 800 rpm) and centrifuged at 1000 g for 12 minutes. The supernatant was stored on ice and the pellet was resuspended in 0.32M sucrose (1:80 w/v) and centrifuged at 850 g for 10 minutes. Combined supernatants were diluted to 1:320 w/v with ice-cold 50 mM Tris-HCl, pH 7.4 (at 25° C.) containing 200 mM sodium chloride and 5 mM potassium chloride (Tris buffer) and centrifuged at 40,000 g for 10 minutes. The resulting pellet was resuspended in 10 ml of 50 mM Tris buffer, incubated at 37° C. for 10 min, diluted in 50 mM Tris buffer (1:320 w/v) and recentrifuged at 40,000 g for 10 minutes. The final pellet was resuspended in 50 mM Tris buffer (equivalent to 1.25 mg wet weight of tissue/ml) and used immediately in the binding assay. All centrifugations were carried out at 4° C.
Membranes (800 μl; equivalent to 1 mg wet weight of tissue/tube) were incubated with 100 μl [^3 H]GBR 12935 at a single concentration of 1 nM and 100 μl of distilled water (total binding) or 100 μl of test compound (10^-6 M) or 100 μl of mazindol (1 μM; non-specific binding) for 90 min at 4° C.
Membrane bound radioactivity was recovered by filtration under vacuum through Whatman GF/C filters, pre-soaked for 1 h in 0.5% polyethylenimine,using a Brandel cell harvester. Filters were rapidly washed with 16 ml of ice-cold 50 mM Tris-HCl, pH 7.4 and radioactivity determined by liquid scintillation counting (2 ml Packard MV Gold scintillator).
as §1, §2, §3, §4, §5, §6, §7, §8, §9, §10, §11

T2 sequence (P31652 whole entry): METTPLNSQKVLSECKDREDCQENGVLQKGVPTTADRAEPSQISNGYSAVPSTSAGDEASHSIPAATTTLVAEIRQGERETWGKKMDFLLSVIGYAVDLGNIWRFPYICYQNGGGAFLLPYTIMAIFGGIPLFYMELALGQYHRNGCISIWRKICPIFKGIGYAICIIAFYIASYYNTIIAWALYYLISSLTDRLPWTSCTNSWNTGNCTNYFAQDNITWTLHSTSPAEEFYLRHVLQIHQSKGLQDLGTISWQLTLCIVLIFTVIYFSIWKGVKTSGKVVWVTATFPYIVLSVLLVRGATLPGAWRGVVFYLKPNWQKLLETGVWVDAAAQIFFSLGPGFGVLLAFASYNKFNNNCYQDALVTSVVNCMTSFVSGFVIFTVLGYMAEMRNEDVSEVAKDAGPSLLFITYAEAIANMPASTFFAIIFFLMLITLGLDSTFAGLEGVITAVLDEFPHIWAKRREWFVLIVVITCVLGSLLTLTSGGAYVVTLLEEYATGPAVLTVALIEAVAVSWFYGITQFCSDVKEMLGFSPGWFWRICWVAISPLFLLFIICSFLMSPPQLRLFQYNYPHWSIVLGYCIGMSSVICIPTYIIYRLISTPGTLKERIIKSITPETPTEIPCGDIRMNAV
T3 sequence (P23977 whole entry): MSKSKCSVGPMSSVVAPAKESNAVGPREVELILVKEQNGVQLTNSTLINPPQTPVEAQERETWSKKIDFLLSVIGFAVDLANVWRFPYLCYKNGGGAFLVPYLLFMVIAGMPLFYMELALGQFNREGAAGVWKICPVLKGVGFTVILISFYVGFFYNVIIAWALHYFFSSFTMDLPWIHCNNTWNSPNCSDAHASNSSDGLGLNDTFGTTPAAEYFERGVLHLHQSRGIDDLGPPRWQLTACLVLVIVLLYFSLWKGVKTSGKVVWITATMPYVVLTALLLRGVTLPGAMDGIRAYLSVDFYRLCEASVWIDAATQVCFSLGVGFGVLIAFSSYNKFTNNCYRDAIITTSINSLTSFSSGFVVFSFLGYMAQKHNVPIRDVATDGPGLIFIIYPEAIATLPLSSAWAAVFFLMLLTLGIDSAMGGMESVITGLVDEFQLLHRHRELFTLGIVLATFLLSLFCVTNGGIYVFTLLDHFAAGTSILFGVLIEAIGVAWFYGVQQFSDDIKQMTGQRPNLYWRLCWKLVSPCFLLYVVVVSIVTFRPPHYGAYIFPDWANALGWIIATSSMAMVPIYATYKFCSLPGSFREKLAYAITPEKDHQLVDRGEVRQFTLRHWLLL
T1 sequence (Q63380 1-617): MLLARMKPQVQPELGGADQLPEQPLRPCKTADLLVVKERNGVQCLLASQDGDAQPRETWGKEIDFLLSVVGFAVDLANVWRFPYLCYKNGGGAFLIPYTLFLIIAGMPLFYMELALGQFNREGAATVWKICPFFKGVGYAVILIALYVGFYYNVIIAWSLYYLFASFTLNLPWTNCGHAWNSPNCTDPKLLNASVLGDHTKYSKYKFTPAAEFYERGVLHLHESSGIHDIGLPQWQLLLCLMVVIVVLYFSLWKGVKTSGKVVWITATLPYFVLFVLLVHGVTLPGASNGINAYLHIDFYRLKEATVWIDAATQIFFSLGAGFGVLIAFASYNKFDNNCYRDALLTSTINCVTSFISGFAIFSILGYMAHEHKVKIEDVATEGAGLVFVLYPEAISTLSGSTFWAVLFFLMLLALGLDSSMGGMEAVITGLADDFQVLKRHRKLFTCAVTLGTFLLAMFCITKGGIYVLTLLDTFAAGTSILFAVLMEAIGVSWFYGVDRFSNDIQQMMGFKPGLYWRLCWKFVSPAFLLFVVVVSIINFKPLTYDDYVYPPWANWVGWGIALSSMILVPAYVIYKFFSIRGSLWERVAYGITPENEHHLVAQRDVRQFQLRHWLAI

SMILES | inhibition at 1 µM [1] | inhibition at 1 µM [2] | inhibition at 1 µM [3]
COc1ccc(CCN=c2scc(C3(c4ccccc4)CCCCC3)n2CCc2ccc(OC)c(OC)c2)cc1OC [Example 68, 3-(3,4-Dimethoxyphenethyl)-2-(3,4-dimethoxyphenethylimino)-4-(1-phenylcyclohexyl)-2,3-dihydrothiazole hydrobromide] | < 50% | < 50% | 65%
c1ccc(N=c2scc(C3(c4ccc5ccccc5c4)CCC3)n2-c2ccccc2)cc1 [Example 49, 4-[1-(2-Naphthyl)cyclobutyl]-3-phenyl-2-phenylimino-2,3-dihydrothiazole hydrobromide] | < 50% | 56% | 69%
c1ccc2cc(C3(c4csc(=NC5CCCC5)n4C4CCCC4)CCC3)ccc2c1 [Example 53, 3-Cyclopentyl-2-cyclopentylimino-4-[1-(2-naphthyl)cyclobutyl]-2,3-dihydrothiazole hydrobromide] | < 50% | 71% | 80%
Cc1ccc(N=c2scc(C3(c4ccc(Cl)c(Cl)c4)CCC3)n2-c2ccc(C)cc2)cc1 [Example 28, 4-[1-(3,4-Dichlorophenyl)cyclobutyl]-3-(p-tolyl)-2-(ptolylimino)-2,3-dihydrothiazole hydrobromide] | < 50% | < 50% | 71%
CCCCN=c1scc(C2(c3ccc4ccccc4c3)CCC2)n1CCCC [Example 40, 3-Butyl-2-butylimino-4-[1-(2-naphthyl)cyclobutyl]-2,3-dihydrothiazole hydrobromide] | < 50% | 97% | 113%
COc1ccc(CCN=c2scc(C(C)(C)c3ccc(Cl)c(Cl)c3)n2CCc2ccc(OC)c(OC)c2)cc1OC [Example 69, 4-[l-(3,4-Dichlorophenyl)-1-methylethyl]-3-(3,4-dimethoxyphenethyl)-2-(3,4-dimethoxyphenethylimino)-2,3-dihydrothiazole hydrobromide] | < 50% | < 50% | 58%
c1ccc(CCN=c2scc(C3(c4ccc5ccccc5c4)CCC3)n2CCc2ccccc2)cc1 [Example 46, 4-1-(2-Naphthyl)cyclobutyl]-3-phenethyl-2-phenethylimino-2,3-dihydrothiazole hydrobromide] | < 50% | 51% | 98%
COc1ccc(CCN=c2scc(C3(c4ccc5ccccc5c4)CCC3)n2CCc2ccc(OC)c(OC)c2)cc1OC [Example 55, 3-(3,4-Dimethoxyphenethyl)-2-(3,4-dimethoxyphenethylimino)-4-[1-(2-naphthyl)cyclobutyl]-2,3-dihydrothiazole hydrobromide] | < 50% | < 50% | 91%
Clc1ccc(C2(c3csc(=NCc4cccnc4)n3Cc3cccnc3)CCC2)cc1Cl [Example 25, 4-[1-(3,4-Dichlorophenyl)cyclobutyl]-3-(3-pyridylmethyl)-2-(3-pyridylmethylimino)-2,3-dihydrothiazole hydrobromide] | 66% | 95% | 108%
CCN=c1scc(C2(c3ccc4ccccc4c3)CCC2)n1CC [Example 37, 3-Ethyl-2-ethylimino-4-[1-(2-naphthyl)cyclobutyl]-2,3-dihydrothiazole hydrobromide] | 102% | 101% | 110%
C1=C(C2(c3cc4ccccc4s3)CCC2)N2CCN=C2S1 [Example 12, 3-[1-(benzo[b]thiophen-2-yl)cyclobutyl]-5,6-dihydroimidazo[2,1-b]thiazole hydrobromide] | 95% | 77% | 121%
CCCN=c1scc(C2(c3ccc4ccccc4c3)CCC2)n1CCC [Example 38, 4-[-(2-Naphthyl)cyclobutyl]-3-propyl-2-propylimino-2,3-dihydrothiazole hydrobromide] | 95% | 102% | 111%
CCCCN=c1scc(C2(c3ccc(Cl)cc3)CCC2)n1CCCC [Example 56, 3-Butyl-2-butylimino-4-[1-(4-chlorophenyl)cyclobutyl]-2,3-dihydrothiazole hydrobromide] | < 50% | < 50% | 93%
CCCCN=c1scc(C(C)(C)c2ccc(Cl)c(Cl)c2)n1CCCC [Example 63, 3-Butyl-2-butylimino-4-[1-(3,4-dichlorophenyl)-1-methylethyl]-2,3-dihydrothiazole hydrobromide] | < 50% | 52% | 107%
C1=C(C2(c3ccc4ccccc4c3)CCC2)N2CCCN=C2S1 [Example 34, 3-[1-(2-Naphthyl)cyclobutyl]-6,7-dihydro-5H-thiazolo[3,2-a]pyrimidine hydrobromide] | 110% | 100% | 109%
Fc1ccc(CN=c2scc(C3(c4ccc(Cl)c(Cl)c4)CCC3)n2Cc2ccc(F)cc2)cc1 [Example 23, 4-[1-(3,4-Dichlorophenyl)cyclobutyl]-3-(4-fluorobenzyl)-2-(4-fluorobenzylimino)-2,3-dihydrothiazole hydrobromide] | < 50% | < 50% | 83%

Source: US6187802A, “Substituted 4-arylmethylene-2-imino-2,3-dihydrothiazoles and derivatives and their pharmaceutical use” (Knoll Aktiengesellschaft, priority 1997, dated 2001)
